This is an account of results in US20150328377A1, “COMPOSITION OF D-ALPHA HYDROXY ACIDS AND ANTIMICROBIALS” (BACTERIN INTERNATIONAL, INC., priority 2012, published 2015).

Structures are written as SMILES. “And” between values parts separate entries of the source, which are not always exact repeats. Identical values can stand only once.

The test deals with S. aureus. Briefly: microplate biofilm formation assay (crystal violet). On the set-up: key to Relative Biofilm Score: crystal violet conc. / non-treated control conc. (1 = control). It is filed as cell-based. Here is the method:
The synergy between a D-alpha hydroxy acid and an antimicrobial agent was determined through a standard microplate biofilm formation assay (Antimicrob Agents Chemother. 2009, 53, 4159-4166—which is incorporated in its entirety by reference). […] Before incubation each well received about 0, about 2, about 20, or about 200 μg/mL L- or D-lactic acids and about 0.0 or about 0.5 μg/mL chlorhexidine (CHX). The plates were incubated for approximately 20 hours at about 37° C. and then the supernatant of the wells was removed. Each well was gently washed 3 times with phosphate buffered saline, and the biofilm was fixed by incubating the plates at about 60° C. for about 1 hour. The biofilm was then stained by incubating at about 37° C. in about 100 μL about 0.5% crystal violet for about 20 minutes. The plates were then thoroughly rinsed with tap water to remove any excess crystal violet and dried. The residual crystal violet was then extracted with about 200 μL of about 33% acetic acid. About 150 μL of the about 33% acetic acid extractant was then diluted with about 2000 μL acetonitrile and the quantity of crystal violet was determined by measuring the absorbance of the resulting solution at about 590 nanometers. The concentration of crystal violet is directly proportional to the amount of biofilm formation in each well. Each set of concentrations was measured at least four times. The average crystal violet concentration was divided by the average crystal violet concentration for a non-treated control (about 0.0 μg/mL CHX and about 0.0 μg/mL lactic acid) to obtain a relative biofilm formation score. In the same manner as Example 1, the synergy between a D-alpha hydroxy acid and the combination of rifampin and minocycline was determined. […] Before incubation each well received about 0 μg/mL or about 200 μg/mL of L- or D-lactic acid and about 0 ng/mL or about 5 ng/mL each of rifampin and minocycline. The plates were incubated for about 20 hours at about 37° C. and then the supernatant of the wells was removed. The quantity of biofilm formation in each well was determined using the protocol detailed in Example 1.

The mark [1] stands for this setting: 2 μg/mL lactic acid combined with 0.5 μg/mL CHX.
Setting [2] is: 2 μg/mL lactic acid, 0.0 μg/mL CHX.
Where [3] appears, read: 20 μg/mL lactic acid combined with 0.5 μg/mL CHX.
The mark [4] stands for this setting: 20 μg/mL lactic acid, 0.0 μg/mL CHX.
Setting [5] is: 200 μg/mL lactic acid combined with 5.0 ng/mL Rif/Min, Table 2.
The mark [6] stands for this setting: 200 μg/mL lactic acid combined with 0.5 μg/mL CHX.
Where [7] appears, read: 200 μg/mL lactic acid, 0.0 μg/mL CHX.
[8] abbreviates: 200 μg/mL lactic acid, 0.0 ng/mL Rif/Min, Table 2.

With `[H]/N=C(\N/C(=N/[H])NCCCCCCNC(=N)NC(=N)Nc1ccc(Cl)cc1)Nc1ccc(Cl)cc1` [CHX, chlorhexidine], the “Relative Biofilm Score” value (0.5 μg/mL CHX alone (0 μg/mL lactic acid), relative to non-treated control, values approximate) is 0.26 ± 0.04 and 0.26 ± 0.05.

On to `C[C@@H](O)C(=O)O` [D-Lactic Acid, D-lactic acid], for which the “Relative Biofilm Score” value reads like this: under setting [1], 0.19 ± 0.03; under setting [2], 1.07 ± 0.24; under setting [3], 0.12 ± 0.03; under setting [4], 1.11 ± 0.17; under setting [5], 0.27 ± 0.04; under setting [6], 0.04 ± 0.01. Further, the “Relative Biofilm Score” value under setting [7] was found to be 1.10 ± 0.20 and the “Relative Biofilm Score” value under setting [8] was 0.92 ± 0.24. Besides, the “effect on biofilm formation” value is on record as “statistically significant dose dependent decrease in biofilm formation” (combined with chlorhexidine, not by itself); “statistically significant decrease in biofilm formation” (combined with rifampin and minocycline, not by itself).

`C[C@H](O)C(=O)O` [L-Lactic Acid, L-lactic acid]: the “Relative Biofilm Score” value by setting is: under setting [1], 0.23 ± 0.05; under setting [2], 1.01 ± 0.20; under setting [3], 0.33 ± 0.08; under setting [4], 1.06 ± 0.18; under setting [5], 0.43 ± 0.03; under setting [6], 0.27 ± 0.07. Also, the “Relative Biofilm Score” value was 1.16 ± 0.18 under setting [7] and 1.04 ± 0.15 under setting [8]. In addition, the “effect on biofilm formation” value is “did not show any statistically significant effects on biofilm formation” (alone or in combination with chlorhexidine at any concentration); “did not show any reduction in biofilm formation” (by itself or combined with rifampin and minocycline).
